In the NIST ThermoML archive (doi:10.1016/j.jct.2010.04.013):

Experiment: mn = molality of the nth substance listed, in mol/kg
Conditions: 101 kPa, Liquid; for mass density: Vibrating tube method; for speed of sound: Pulse-echo method

[Ba+2].[O-][Cl+3]([O-])([O-])[O-].[O-][Cl+3]([O-])([O-])[O-] [barium perchlorate] + CO
Conditions	mass density, 283.15 K [kg/m3]	mass density, 288.15 K [kg/m3]	mass density, 293.15 K [kg/m3]	mass density, 298.15 K [kg/m3]	mass density, 303.15 K [kg/m3]	mass density, 308.15 K [kg/m3]	mass density, 313.15 K [kg/m3]	speed of sound, 298.15 K [m/s]
m1 = 0.04405	811.658	806.964	802.257	797.534	792.793	788.031	783.24	1104.8
m1 = 0.05789	815.181	810.483	805.768	801.038	796.29	791.514	786.709	1105.8
m1 = 0.07152	818.62	813.919	809.196	804.461	799.707	794.928	790.115	1106.8
m1 = 0.08565	822.272	817.565	812.834	808.092	803.33	798.541	793.738	–
m1 = 0.09942	825.796	821.081	816.346	811.597	806.83	802.029	797.22	1108.7
m1 = 0.1123	829.125	824.405	819.663	814.91	810.139	805.341	800.51	1109.7
m1 = 0.1401	836.397	831.665	826.908	822.143	817.357	812.546	807.7	1111.7
m1 = 0.1665	843.399	838.652	833.885	829.105	824.3	819.488	814.642	1113.2
m1 = 0.1922	850.26	845.49	840.721	835.928	831.119	826.278	821.422	1115.2
m1 = 0.2169	856.95	852.176	847.385	842.583	837.763	832.919	828.046	1116.9
m1 = 0.2417	863.79	859.009	854.206	849.387	844.546	839.692	834.813	1118.6

CO [methanol] + [O-][Cl+3]([O-])([O-])[O-].[O-][Cl+3]([O-])([O-])[O-].[Sr+2]
m2 = 0
Conditions	mass density [kg/m3]
283.15 K	800.547
288.15 K	795.856
293.15 K	791.16
298.15 K	786.447
303.15 K	781.721
308.15 K	776.973
313.15 K	772.194

C[S+](C)[O-] [dimethyl sulfoxide] + [O-][Cl+3]([O-])([O-])[O-].[O-][Cl+3]([O-])([O-])[O-].[Sr+2]
m2 = 0
Conditions	mass density [kg/m3]
293.15 K	1100.22
298.15 K	1095.18
303.15 K	1090.17
313.15 K	1080.12
323.15 K	1070.08
333.15 K	1060.03

CO [methanol] + [Ca+2].[O-][Cl+3]([O-])([O-])[O-].[O-][Cl+3]([O-])([O-])[O-]
m2 = 0
Conditions	mass density [kg/m3]
283.15 K	800.54
288.15 K	795.862
293.15 K	791.168
298.15 K	786.458
303.15 K	781.732
308.15 K	776.98
313.15 K	772.203

CO [methanol] + O=S(=O)([O-])C(F)(F)F.[Na+]
m2 = 0
Conditions	mass density [kg/m3]
283.15 K	800.544
288.15 K	795.854
293.15 K	791.158
298.15 K	786.447
303.15 K	781.714
308.15 K	776.97
313.15 K	772.195

[Ca+2].[O-][Cl+3]([O-])([O-])[O-].[O-][Cl+3]([O-])([O-])[O-] [calcium diperchlorate] + C[S+](C)[O-]
Conditions	mass density, 293.15 K [kg/m3]	mass density, 298.15 K [kg/m3]	mass density, 303.15 K [kg/m3]	mass density, 313.15 K [kg/m3]	mass density, 323.15 K [kg/m3]	mass density, 333.15 K [kg/m3]	speed of sound, 298.15 K [m/s]
m1 = 0.01996	1103.64	1098.63	1093.62	1083.61	1073.6	1063.59	–
m1 = 0.02505	1104.52	1099.51	1094.5	1084.5	1074.49	1064.5	–
m1 = 0.03085	1105.52	1100.51	1095.51	1085.52	1075.52	1065.54	1486.8
m1 = 0.03807	1106.77	1101.77	1096.77	1086.78	1076.8	1066.82	1487.3
m1 = 0.0488	1108.62	1103.63	1098.64	1088.67	1078.7	1068.74	1488.2
m1 = 0.06089	1110.72	1105.73	1100.74	1090.8	1080.86	1070.91	1489.3
m1 = 0.07827	1113.74	1108.77	1103.81	1093.88	1083.96	1074.05	1490.8
m1 = 0.1006	1117.66	1112.7	1107.75	1097.85	1087.97	1078.08	1492.6
m1 = 0.1214	1121.33	1116.39	1111.45	1101.58	1091.73	1081.88	1494.5
m1 = 0.1417	1124.92	1119.99	1115.06	1105.22	1095.39	1085.57	1496.2
m1 = 0.1651	1129.07	1124.16	1119.25	1109.44	1099.65	1089.87	1498.2
m1 = 0.1858	1132.79	1127.88	1122.99	1113.2	1103.45	1093.69	1500.1

CO [methanol] + [Mg+2].[O-][Cl+3]([O-])([O-])[O-].[O-][Cl+3]([O-])([O-])[O-]
m2 = 0
Conditions	mass density [kg/m3]
283.15 K	800.542
288.15 K	795.864
293.15 K	791.17
298.15 K	786.46
303.15 K	781.735
308.15 K	776.985
313.15 K	772.206

CO [methanol] + [Ba+2].[O-][Cl+3]([O-])([O-])[O-].[O-][Cl+3]([O-])([O-])[O-]
m2 = 0
Conditions	mass density [kg/m3]
283.15 K	800.555
288.15 K	795.877
293.15 K	791.18
298.15 K	786.468
303.15 K	781.739
308.15 K	776.993
313.15 K	772.219

O=S(=O)([O-])C(F)(F)F.[Na+] [sodium trifluoromethanesulfonate] + CO
Conditions	mass density, 283.15 K [kg/m3]	mass density, 288.15 K [kg/m3]	mass density, 293.15 K [kg/m3]	mass density, 298.15 K [kg/m3]	mass density, 303.15 K [kg/m3]	mass density, 308.15 K [kg/m3]	mass density, 313.15 K [kg/m3]	speed of sound, 298.15 K [m/s]
m1 = 0.04581	805.004	800.315	795.62	790.91	786.191	781.448	776.675	1102.3
m1 = 0.05858	806.247	801.557	796.863	792.154	787.428	782.688	777.918	1102.5
m1 = 0.07409	807.746	803.057	798.363	793.657	788.931	784.175	779.409	1103
m1 = 0.08825	809.117	804.427	799.733	795.022	790.305	785.561	780.79	1103.2
m1 = 0.1028	810.527	805.836	801.14	796.431	791.701	786.964	782.194	1103.4
m1 = 0.1172	811.93	807.238	802.543	797.833	793.105	788.352	783.59	1103.6
m1 = 0.1463	814.771	810.077	805.377	800.668	795.947	791.201	786.428	1104
m1 = 0.1743	817.509	812.812	808.112	803.401	798.671	793.913	789.143	1104.6
m1 = 0.2027	820.305	815.606	810.904	806.19	801.46	796.713	791.938	1105
m1 = 0.2301	823.038	818.338	813.634	808.917	804.185	799.436	794.66	1105.2
m1 = 0.2574	825.732	821.028	816.321	811.601	806.867	802.106	797.321	1105.4
m1 = 0.2861	828.58	823.872	819.161	814.439	809.7	804.938	800.15	1105.6
